# Results from patent US5342970A, “Hydrosoluble coumarin derivatives, their preparation and their use as an enzyme substrate or for the preparation of such substrates” (priority 1991, dated 1994).
# Where “and” joins values, the source holds several entries; their conditions need not be identical. Equal entries are not always repeated. Structures can show the parent of a compound that is named as a salt. Where two headings read alike, the source gives them in different places.
# What was measured:
# Pig pancreas trypsin [1] = biological target: T1, Pig pancreas trypsin (Sus scrofa, UniProt P00761); conditions: for comparison purposes; cited from earlier work
# T1 sequence (P00761 9-231): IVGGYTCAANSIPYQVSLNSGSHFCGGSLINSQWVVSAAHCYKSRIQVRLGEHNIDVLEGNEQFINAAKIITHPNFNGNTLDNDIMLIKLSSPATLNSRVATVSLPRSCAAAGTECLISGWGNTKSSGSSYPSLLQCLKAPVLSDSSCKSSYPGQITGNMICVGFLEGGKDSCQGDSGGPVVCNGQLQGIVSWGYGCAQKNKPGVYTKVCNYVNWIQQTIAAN
# [2] = Solubility in water and in water-ethanol mixtures; assay type: physicochemical
# Leucine aminopeptidase = conditions: known substrates, for comparison; medium with organic solvent; cited from earlier work
# Pig pancreas trypsin [3] = biological target: T1, Pig pancreas trypsin; assay: Determination of trypsin, analytical characteristics; assay type: biochemical
# Method: Six calibration ranges containing a final enzyme concentration of 0-0.42-0.84-1.67-3.33-6.67 μg/ml were prepared. Each calibration curve was determined by linear regression. The mean standard deviation is 2.45×10^-3 ±0.003×10^-3 for the gradient and 4.80×10^-3 ±2.53×10^-3 for the intercept The linearity test is significant at the 5% threshold (W=0.245). The quantification limit, calculated by the ratio 3σb /a is 0.05 μg/ml. The repeatability, evaluated by the variation coefficient, is 9.4% at 0.42 μg/ml, 5.9% at 0.84 μg/ml and 1.3% at 6.67 μg/ml.
# Pig pancreas trypsin [4] = biological target: T1, Pig pancreas trypsin; assay: Hydrolysis of substrate by trypsin, Michaelis kinetics; assay type: biochemical
# Method: Crystalline Z-Arg-ATC hydrochloride (Seratec): 10^-3 M solution in Tris buffer, pH 8.0+CACl2, 10 mM.
# Pig pancreas trypsin (SIGMA T0134): 10^-3 M solution in Tris buffer, pH 8.0+CACl2, 10 mM.
# Tris buffer: solution A: 0.2M Tris, i.e. 24.23 g/l+CaCl2, 40 mM, i.e. 5.88 g/l; solution B: 0.1M HCl.
# This buffer is prepared by mixing 250 ml of solution A with 268 ml of solution B and by topping up to 1 liter with water.
# Acetate buffer: solution A: 0.02M acetic acid; solution B: 0.02M sodium acetate.
# This buffer is prepared by mixing volume by volume solutions A and B to obtain a buffer at pH 4.75.
# Aqueous 1.17N perchloric acid solution (1/10 dilution of pure acid).
# The following substrate concentration range was prepared in tubes: 0-0.2-0.5-1-2-5-10×10^-4 M (final concentration).
# To each tube was added a concentration of 6.67 μg/ml of trypsin, everything being dissolved in the Tris buffer pH 8.0+CaCl2, 10 mM and at ambient temperature. The enzyme is added at time 0. After 2 minutes, 250 μl are removed from each tube and poured into tubes containing 250 μl of 1.17N perchloric acid and 500 μl of water. The tubes are centrifuged and then the solution is diluted to 1/250 in the acetate buffer. The same operation is repeated at 17 min. The fluorescence intensity is measured at 380/490nm. The difference of the intensities at 17 and 2 min constitutes the signal.
# The corresponding ATC concentration is calculated compared with a calibration range from 5×10^-9 to 2×10^-7 M.
# This was followed by the determination of Km, Vm, kcat and the ratio kcat/Km. The results obtained are given in table 6, which also gives for comparison purposes the values obtained with Z-L-Arg-AMC and Bz DL Arg-AMC and Bz -L-Arg-AMC.
# [5] = Excitation and emission spectra of ATC derivatives (Table 4); assay type: physicochemical; conditions: 10^-7 M, Z-Arg-ATC in 50 mM Tris pH 8, 10 mM CaCl2
# Method: The excitation and emission spectra of ATC and Z-Arg-ATC were plotted on the basis of 10^-7 M solutions in the 50 mM Tris buffer at pH 8 containing 10 mM of CaCl2. The maxima obtained are indicated in table 4 with the corresponding maxima of Leu-ATC.
# [6] = Excitation and emission spectra of substrates and hydrolysis products (Table 1); assay type: physicochemical; conditions: 10^-7 M in Tris buffer, pH 7.8
# [7] = water, read-out: Solubility in water
# [8] = enzyme 0-6.67 μg/ml, linear regression
smiles,measurement,setting,value
Cc1cc(=O)oc2cc(NC(=O)[C@H](CCCNC(=N)N)NC(=O)OCc3ccccc3)ccc12 [Z--L--Arg--AMC],Km,Pig pancreas trypsin [1],200 µM
same,kcat,Pig pancreas trypsin [1],0.89 s⁻¹
same,kcat/Km,Pig pancreas trypsin [1],4500 M⁻¹ s⁻¹
Cc1cc(=O)oc2cc(NC(=O)C(CCCNC(=N)N)NC(=O)c3ccccc3)ccc12 (racemic) [Bz--DL--Arg--AMC],Km,Pig pancreas trypsin [1],250 µM
same,kcat,Pig pancreas trypsin [1],0.20 s⁻¹
same,kcat/Km,Pig pancreas trypsin [1],800 M⁻¹ s⁻¹
"COCCOCCOCc1cc(=O)oc2cc(O)ccc12 [Compound 10, 7-hydroxy-4-(2',5',8'-trioxanonyl)coumarin]",solubility,"[2]; water-ethanol 90:10, organic solvent or mixture, read-out: Solubility in the water-ethanol mixture (90:10)",7000 µg/mL
same,solubility,[2]; [7],1000 µg/mL
CC(C)C[C@H](N)C(=O)Nc1ccc2ccccc2c1 [Leu-βnaphthylamide],Km,Leucine aminopeptidase,150 µM
same,Vm,Leucine aminopeptidase,5.5 μmole/mg Ez/min
"COCCOCCOCc1cc(=O)oc2c3c4c(cc12)CCCN4CCC3 [Compound 7, 2,3,6,7-tetrahydro-9-(2',5',8'-trioxanonyl)-1H, 5H, 11H-(1)-benzopyrano-(6,7,8-ij)-quinolizinone-11]",solubility,"[2]; ethanol:water 30:70, organic solvent or mixture, read-out: Solubility in ethanol:water mixture (30:70)",3000 µg/mL
same,solubility,[2]; [7],200 µg/mL
"COCCOCCOCc1cc(=O)oc2cc(NC(=O)[C@H](CCCNC(=N)N)NC(=O)OCc3ccccc3)ccc12 [Compound 14, N-carbobenzyloxy-L-arginyl-4-(2',5',8'-trioxanonyl)-7-coumarinylamide hydrochloride]",repeatability (variation coefficient),Pig pancreas trypsin [3]; at 0.42 μg/ml enzyme,9.4%
same,repeatability (variation coefficient),Pig pancreas trypsin [3]; at 0.84 μg/ml enzyme,5.9%
same,repeatability (variation coefficient),Pig pancreas trypsin [3]; at 6.67 μg/ml enzyme,1.3%
same,gradient of calibration curve,Pig pancreas trypsin [3]; [8],2.45×10^-3 ±0.003×10^-3
same,intercept of calibration curve,Pig pancreas trypsin [3]; [8],4.80×10^-3 ±2.53×10^-3
same,quantification limit,"Pig pancreas trypsin [3]; trypsin, ratio 3σb/a",0.05 µg/mL
same,detection limit for trypsin compared with substrates derived from AMC,Pig pancreas trypsin [3]; words,of the same order of magnitude as that obtained with substrates derived from AMC
same,Vm,"Pig pancreas trypsin [4]; Tris buffer pH 8.0 + CaCl2 10 mM, ambient temperature",474 nmole/min/mg Ez
same,ATC hydrolysis solution,Pig pancreas trypsin [4]; substrate 0.2×10^-4 M,0.224 µM/min
same,ATC working solution,Pig pancreas trypsin [4]; substrate 0.2×10^-4 M,3.36 nM
same,IF(17)-IF(2),Pig pancreas trypsin [4]; substrate 0.2×10^-4 M,3.7
same,ATC hydrolysis solution,Pig pancreas trypsin [4]; substrate 0.5×10^-4 M,0.467 µM/min
same,ATC working solution,Pig pancreas trypsin [4]; substrate 0.5×10^-4 M,7.00 nM
same,IF(17)-IF(2),Pig pancreas trypsin [4]; substrate 0.5×10^-4 M,7.7
same,ATC hydrolysis solution,Pig pancreas trypsin [4]; substrate 1×10^-4 M,1.03 µM/min
same,ATC working solution,Pig pancreas trypsin [4]; substrate 1×10^-4 M,15.4 nM
same,IF(17)-IF(2),Pig pancreas trypsin [4]; substrate 1×10^-4 M,16.9
same,ATC hydrolysis solution,Pig pancreas trypsin [4]; substrate 2×10^-4 M,1.81 µM/min
same,ATC working solution,Pig pancreas trypsin [4]; substrate 2×10^-4 M,27.1 nM
same,IF(17)-IF(2),Pig pancreas trypsin [4]; substrate 2×10^-4 M,29.8
same,ATC hydrolysis solution,Pig pancreas trypsin [4]; substrate 5×10^-4 M,2.36 µM/min
same,ATC working solution,Pig pancreas trypsin [4]; substrate 5×10^-4 M,35.4 nM
same,IF(17)-IF(2),Pig pancreas trypsin [4]; substrate 5×10^-4 M,38.9
same,ATC hydrolysis solution,Pig pancreas trypsin [4]; substrate 10×10^-4 M,2.57 µM/min
same,ATC working solution,Pig pancreas trypsin [4]; substrate 10×10^-4 M,38.6 nM
same,IF(17)-IF(2),Pig pancreas trypsin [4]; substrate 10×10^-4 M,42.4
same,affinity and activity compared with Bz-DL-Arg-AMC,Pig pancreas trypsin [4]; words,comparable with Bz-DL-Arg-AMC
same,"excitation maximum, substrate",[5],355 nm
same,"fluorescence maximum, substrate",[5]; hydrochloride,415 nm and 450 nm
"N=C(N)NCCC[C@H](NC(=O)CNC(=O)CN)C(=O)Nc1ccc2c(CS(=O)(=O)O)cc(=O)oc2c1 [GlyGly Arg AMCS, reference compound]","Maximum excitation wavelength, substrate",[6],336 nm
same,"Maximum fluorescence wavelength, substrate",[6],409 nm
Cc1cc(=O)oc2cc(NC(=O)[C@H](CCCNC(=N)N)NC(=O)c3ccccc3)ccc12 [Bz--L--Arg--AMC],Km,Pig pancreas trypsin [1],110 µM
same,kcat,Pig pancreas trypsin [1],0.42 s⁻¹
same,kcat/Km,Pig pancreas trypsin [1],3800 M⁻¹ s⁻¹
